In PubChem BioAssay AID328 (DTP/NCI, 2004):
“And” between values parts separate entries of the source, which are not always exact repeats. Equal entries are not always repeated. Toxic doses and inconclusive results are not listed.

Tested on: BDF1 mice, P388 leukemia ip, median survival T/C
Experiment: NCI In Vivo Anticancer Drug Screen. Data for tumor model P388 Leukemia (intraperitoneal) in B6D2F1 (BDF1) mice
Settings: endpoint: median survival time, higher = longer survival
In short: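 Compound-treated tumour-bearing mice were compared with vehicle-treated controls. Survival was recorded, and the value is the treated-group measurement divided by the control-group measurement (T/C).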

[1] = dose: 100.0 mg/kg/injection, schedule: Q01DX009 (ip), vehicle: Klucel (hydroxypropylcellulose) (HPC)
[2] = dose: 200.0 mg/kg/injection, schedule: Q01DX009 (ip), vehicle: Klucel (hydroxypropylcellulose) (HPC)
[3] = dose: 100.0 mg/kg/injection, schedule: Q04DX003 (ip), vehicle: saline with Tween-80
[4] = dose: 200.0 mg/kg/injection, schedule: Q04DX003 (ip), vehicle: saline with Tween-80
[5] = dose: 400.0 mg/kg/injection, schedule: Q04DX003 (ip), vehicle: saline with Tween-80

SMILES: C(=N\N(c1ccccc1)c1ccccc1)/c1ccc(/C=N/N(c2ccccc2)c2ccccc2)cc1
- T/C (dose: 100.0 mg/kg/injection, schedule: Q04DX003 (ip), vehicle: Klucel (hydroxypropylcellulose) (HPC)): 100 % of control
- T/C (dose: 200.0 mg/kg/injection, schedule: Q04DX003 (ip), vehicle: Klucel (hydroxypropylcellulose) (HPC)): 100 % of control
- T/C (dose: 400.0 mg/kg/injection, schedule: Q04DX003 (ip), vehicle: Klucel (hydroxypropylcellulose) (HPC)): 95 % of control

SMILES: C/C=C1\CN2CCc3c([nH]c4ccccc34)C2CC1Cc1nccc2c1[nH]c1ccccc12 (stereo not given)
- T/C (dose: 1.0 mg/kg/injection, schedule: Q04DX003 (ip), vehicle: saline): 98 % of control
- T/C (dose: 2.0 mg/kg/injection, schedule: Q04DX003 (ip), vehicle: saline): 102 % of control
- T/C (dose: 4.0 mg/kg/injection, schedule: Q04DX003 (ip), vehicle: saline): 102 % of control
- T/C (dose: 6.0 mg/kg/injection, schedule: Q04DX003 (ip), vehicle: saline): 107 % of control
- T/C (dose: 12.0 mg/kg/injection, schedule: Q04DX003 (ip), vehicle: saline): 103 % of control
- T/C (dose: 24.0 mg/kg/injection, schedule: Q04DX003 (ip), vehicle: saline): 100 % of control
- T/C (dose: 48.0 mg/kg/injection, schedule: Q04DX003 (ip), vehicle: saline): 100 % of control

SMILES: CN(C)C=O.CN(C)C=O.[Cl][Sn]([Cl])([Cl])[Cl]
- T/C (dose: 25.0 mg/kg/injection, schedule: Q01DX009 (ip), vehicle: Klucel (hydroxypropylcellulose) (HPC)): 100 % of control
- T/C (dose: 50.0 mg/kg/injection, schedule: Q01DX009 (ip), vehicle: Klucel (hydroxypropylcellulose) (HPC)): 105 % of control
- T/C (dose: 75.0 mg/kg/injection, schedule: Q04DX003 (ip), vehicle: Klucel (hydroxypropylcellulose) (HPC)): 109 % of control
- T/C [1]: 100 % of control
- T/C (dose: 150.0 mg/kg/injection, schedule: Q04DX003 (ip), vehicle: Klucel (hydroxypropylcellulose) (HPC)): 86 % of control

SMILES: Cc1ccc(-c2nc3ccccc3c(=O)n2/N=C/c2ccccc2)cc1
- T/C (dose: 50.0 mg/kg/injection, schedule: Q01DX009 (ip), vehicle: saline with Tween-80): 90 % of control
- T/C (dose: 100.0 mg/kg/injection, schedule: Q01DX009 (ip), vehicle: saline with Tween-80): 93 % of control

SMILES: ClCCN(CCCl)CCCN1c2ccccc2Sc2ccc(Cl)cc21
- T/C (dose: 3.12 mg/kg/injection, schedule: Q04DX003 (ip), vehicle: saline): 97 % of control
- T/C (dose: 6.25 mg/kg/injection, schedule: Q04DX003 (ip), vehicle: saline with Tween-80): 154 % of control
- T/C (dose: 6.25 mg/kg/injection, schedule: Q04DX003 (ip), vehicle: saline): 97 % of control
- T/C (dose: 12.5 mg/kg/injection, schedule: Q04DX003 (ip), vehicle: saline): 94 % of control

SMILES: CCOC(=O)c1sc(NC(C)=O)c(C(=O)OCC)c1C
- T/C [1]: 100 % of control
- T/C [2]: 100 % of control
- T/C (dose: 400.0 mg/kg/injection, schedule: Q01DX009 (ip), vehicle: Klucel (hydroxypropylcellulose) (HPC)): 100 % of control

SMILES: CC1OC(OC2CCCc3ccccc32)CC(N)C1O (stereo not given)
- T/C (dose: 0.25 mg/kg/injection, schedule: Q01DX009 (ip), vehicle: water): 91 % of control and 94 % of control
- T/C (dose: 0.5 mg/kg/injection, schedule: Q01DX009 (ip), vehicle: water): 101 % of control and 115 % of control and 103 % of control
- T/C (dose: 1.0 mg/kg/injection, schedule: Q01DX009 (ip), vehicle: water): 110 % of control [middle of 4 runs]
- T/C (dose: 2.0 mg/kg/injection, schedule: Q01DX009 (ip), vehicle: water): 101 % of control and 102 % of control and 105 % of control
- T/C (dose: 4.0 mg/kg/injection, schedule: Q01DX009 (ip), vehicle: water): 109 % of control [middle of 5 runs]
- T/C (dose: 8.0 mg/kg/injection, schedule: Q01DX009 (ip), vehicle: water): 106 % of control and 111 % of control
- T/C (dose: 16.0 mg/kg/injection, schedule: Q01DX009 (ip), vehicle: water): 98 % of control and 108 % of control
- T/C (dose: 32.0 mg/kg/injection, schedule: Q01DX009 (ip), vehicle: water): 121 % of control

SMILES: O=c1cc(Cl)c(=O)[nH][nH]1
- T/C (dose: 50.0 mg/kg/injection, schedule: Q01DX001 (ip), vehicle: saline): 101 % of control
- T/C (dose: 100.0 mg/kg/injection, schedule: Q01DX001 (ip), vehicle: saline): 118 % of control
- T/C [3]: 100 % of control
- T/C (dose: 200.0 mg/kg/injection, schedule: Q01DX001 (ip), vehicle: saline): 98 % of control
- T/C [4]: 91 % of control
- T/C [5]: 91 % of control

SMILES: COc1cccc(CC(N)=O)c1OC
- T/C (dose: 25.0 mg/kg/injection, schedule: Q01DX009 (ip), vehicle: saline): 99 % of control
- T/C (dose: 50.0 mg/kg/injection, schedule: Q01DX009 (ip), vehicle: saline): 99 % of control
- T/C (dose: 50.0 mg/kg/injection, schedule: Q04DX003 (ip), vehicle: saline): 109 % of control
- T/C (dose: 100.0 mg/kg/injection, schedule: Q01DX009 (ip), vehicle: saline): 97 % of control
- T/C (dose: 100.0 mg/kg/injection, schedule: Q04DX003 (ip), vehicle: saline): 87 % of control and 99 % of control
- T/C (dose: 200.0 mg/kg/injection, schedule: Q01DX009 (ip), vehicle: saline): 92 % of control
- T/C (dose: 200.0 mg/kg/injection, schedule: Q04DX003 (ip), vehicle: saline): 90 % of control and 94 % of control
- T/C (dose: 400.0 mg/kg/injection, schedule: Q04DX003 (ip), vehicle: saline): 100 % of control

SMILES: CC(=O)[O][Hg][c]1s[c]([Hg][O]C(C)=O)[c]([Hg][O]C(C)=O)[c]1[Hg][O]C(C)=O
- T/C (dose: 1.0 mg/kg/injection, schedule: Q01DX009 (ip), vehicle: Klucel (hydroxypropylcellulose) (HPC)): 101 % of control
- T/C (dose: 2.0 mg/kg/injection, schedule: Q01DX009 (ip), vehicle: Klucel (hydroxypropylcellulose) (HPC)): 100 % of control
- T/C (dose: 2.6 mg/kg/injection, schedule: Q01DX009 (ip), vehicle: saline): 118 % of control
- T/C (dose: 3.8 mg/kg/injection, schedule: Q04DX003 (ip), vehicle: saline): 95 % of control
- T/C (dose: 4.0 mg/kg/injection, schedule: Q01DX009 (ip), vehicle: Klucel (hydroxypropylcellulose) (HPC)): 102 % of control
- T/C (dose: 4.0 mg/kg/injection, schedule: Q01DX009 (ip), vehicle: saline): 118 % of control
- T/C (dose: 6.0 mg/kg/injection, schedule: Q01DX009 (ip), vehicle: Klucel (hydroxypropylcellulose) (HPC)): 101 % of control
- T/C (dose: 6.0 mg/kg/injection, schedule: Q01DX009 (ip), vehicle: saline): 118 % of control
- T/C (dose: 7.5 mg/kg/injection, schedule: Q04DX003 (ip), vehicle: saline): 100 % of control
- T/C (dose: 9.0 mg/kg/injection, schedule: Q01DX009 (ip), vehicle: Klucel (hydroxypropylcellulose) (HPC)): 103 % of control
- T/C (dose: 9.0 mg/kg/injection, schedule: Q01DX009 (ip), vehicle: saline): 118 % of control

SMILES: C1CN1P1(N2CC2)=NP(N2CC2)(N2CC2)=NP(N2CC2)(N2CC2)=N1
- T/C (dose: 0.61 mg/kg/injection, schedule: Q01DX009 (ip), vehicle: saline): 109 % of control
- T/C (dose: 0.92 mg/kg/injection, schedule: Q01DX009 (ip), vehicle: saline): 118 % of control
- T/C (dose: 2.1 mg/kg/injection, schedule: Q01DX009 (ip), vehicle: saline): 154 % of control
- T/C (dose: 3.3 mg/kg/injection, schedule: Q01DX009 (ip), vehicle: saline): 180 % of control and 203 % of control and 204 % of control
- T/C (dose: 5.0 mg/kg/injection, schedule: Q01DX009 (ip), vehicle: saline): 190 % of control and 218 % of control
- T/C (dose: 7.5 mg/kg/injection, schedule: Q01DX009 (ip), vehicle: saline): 265 % of control and 272 % of control and 153 % of control

SMILES: O=C(O)CC/C(=N\O)c1cccc([N+](=O)[O-])c1
- T/C [3]: 100 % of control
- T/C [4]: 100 % of control
- T/C [5]: 95 % of control

SMILES: O=C1C(=C(C(F)(F)F)C(F)(F)F)CCc2ccc([N+](=O)[O-])cc21
- T/C [3]: 110 % of control
- T/C [5]: 110 % of control

SMILES: CCCCCCc1c(C(OC)OC)[nH]c(=S)[nH]c1=O
- T/C [1]: 96 % of control
- T/C [2]: 89 % of control

SMILES: Cc1ccc(CNc2ccc(F)cc2)cc1
- T/C (dose: 100.0 mg/kg/injection, schedule: Q01DX009 (ip), vehicle: other): 100 % of control
- T/C [3]: 95 % of control
- T/C (dose: 178.0 mg/kg/injection, schedule: Q01DX009 (ip), vehicle: other): 100 % of control
- T/C (dose: 200.0 mg/kg/injection, schedule: Q01DX009 (ip), vehicle: other): 95 % of control
- T/C [4]: 104 % of control
- T/C (dose: 266.0 mg/kg/injection, schedule: Q01DX009 (ip), vehicle: other): 109 % of control
- T/C (dose: 400.0 mg/kg/injection, schedule: Q01DX009 (ip), vehicle: other): 104 % of control
- T/C [5]: 100 % of control

SMILES: COc1cccc2c1C(=O)c1c(O)c3c(c(O)c1C2=O)CC(O)(/C(C)=N/NC(=O)CCC(=O)N/N=C(\C)C1(O)Cc2c(O)c4c(c(O)c2C(OC2CC(N)C(O)C(C)O2)C1)C(=O)c1c(OC)cccc1C4=O)CC3OC1CC(N)C(O)C(C)O1 (stereo not given)
- T/C (dose: 14.4 mg/kg/injection, schedule: Q04DX003 (ip), vehicle: water): 158 % of control
- T/C (dose: 40.0 mg/kg/injection, schedule: Q04DX003 (ip), vehicle: water): 109 % of control
